Earlier results on four compounds are cited in US20250382198A1, “ADSORBENT AND METHOD FOR REMOVING PER- AND/OR POLYFLUOROALKYL SUBSTANCES (PFAS) IN WATER MATRICES” (University of Central Florida Research Foundation, Inc., priority 2024, published 2025).

As a reminder, the Log D is the decadic logarithm of the distribution of all forms, ionised or not, between an organic phase and buffer at a given pH. A word on the pKa: it is the negative logarithm of the acid dissociation constant.

Consider `O=C(O)C(F)(OC(F)(F)C(F)(F)C(F)(F)F)C(F)(F)F` (centres unmarked) [GenX, hexafluoropropylene oxide dimer acid], for which the log distribution coefficient (Log D) is 0.47 and the pKa was 2.84.

For `O=C(O)C(F)(F)C(F)(F)C(F)(F)F` [PFBA, Perfluorobutanoic acid], the “Log D” value is reported as −1.22. Take `O=C(O)C(F)(F)C(F)(F)C(F)(F)C(F)(F)C(F)(F)C(F)(F)C(F)(F)F` [PFOA, Perfluorooctanoic acid]: the “Log D” value was 1.58. Consider `O=S(=O)(O)C(F)(F)C(F)(F)C(F)(F)C(F)(F)C(F)(F)C(F)(F)C(F)(F)C(F)(F)F` [PFOS, Perfluorooctanesulfonic acid], for which the “Log D” value is given as 3.05.
